Data: patent US11297861B2, “Sweet protein from truffle” (MycoTechnology, Inc., priority 2020, dated 2022)

Tested on: sweet taste
Test: CATA time intensity of the sweet sensation, trained panel
Type: in vivo, human
Details: 10% sucrose in water
Experimental: Evaluation of thaumatin, sucrose, and SEQ ID NO:21 was carried out using a CATA (click all that apply) time intensity of the sweet sensation of named analytes in water at 0.045 mg/ml for proteins and 10% sucrose. Methodology: Time Intensity Technique; Data collection software: EyeQuestion, responses recorded every 2.57 seconds; Scaling Method: a 15-point sweet scale, e.g. score 5=5% sucrose, score 10=10% sucrose; Evaluation Protocol: small volume sip, tilt and spit test. There were 3-6 panelists and 2 replicates. All samples were blinded and presented with randomized 3-digit codes. Training Strategies: An intense training on sweet scale over 6 weeks on 15-point sweet scale to confidently assign sweet values. Due to unique sweet behavioral patterns, it is necessary to train time intensity principles over 3 weeks. Samples were tasted with a stopwatch to note times and help reach a consensus. # of Panelists: 3-6, # of replications: 2. All samples were blinded and presented with randomized 3-digit codes. Statistical analysis: due to the small # of panelists, a statistical analysis cannot be performed.

OC[C@H]1O[C@@](CO)(O[C@H]2O[C@H](CO)[C@@H](O)[C@H](O)[C@H]2O)[C@@H](O)[C@@H]1O [SUC, sucrose]
time to threshold sweetness (Intensity <1): 162 s
